Like-named read-outs stand apart in the source and are kept apart here.
Biological target: T1, human Nav1.8 (Homo sapiens, UniProt Q9Y5Y9)
T1 construct: expressed in transfected cells; host or cells: HEK293 (HEK293-Nav1.8)
Assay: Nav1.8 sodium channels assay, QPatch 48 HTX electrophysiology in HEK293-Nav1.8 cells
Format: cell-based
Method in brief: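 IC50 came from 6-8 point curves of P2 current amplitude, normalized to baseline and a positive reference, and corrected for run-down using vehicle-only wells. Automated patch clamp used HEK293-Nav1.8 (with Navβ1 and TREK1) at pH 7.4 outside and CsF-based solution inside. An 8 s inactivating step at −46 mV preceded the 0 mV test pulse, repeated at 0.07 Hz.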

[1] = at least one set of experimental runs, read-out: average pIC50 value against Nav1.8 (converted)
[2] = Table 1, HEK293-Nav1.8, QPatch 48 HTX, half inactivation state voltage protocol (V1/2), single run or average of two or more runs, read-out: Nav1.8 pIC50 (converted)

T1 sequence (Q9Y5Y9 whole entry): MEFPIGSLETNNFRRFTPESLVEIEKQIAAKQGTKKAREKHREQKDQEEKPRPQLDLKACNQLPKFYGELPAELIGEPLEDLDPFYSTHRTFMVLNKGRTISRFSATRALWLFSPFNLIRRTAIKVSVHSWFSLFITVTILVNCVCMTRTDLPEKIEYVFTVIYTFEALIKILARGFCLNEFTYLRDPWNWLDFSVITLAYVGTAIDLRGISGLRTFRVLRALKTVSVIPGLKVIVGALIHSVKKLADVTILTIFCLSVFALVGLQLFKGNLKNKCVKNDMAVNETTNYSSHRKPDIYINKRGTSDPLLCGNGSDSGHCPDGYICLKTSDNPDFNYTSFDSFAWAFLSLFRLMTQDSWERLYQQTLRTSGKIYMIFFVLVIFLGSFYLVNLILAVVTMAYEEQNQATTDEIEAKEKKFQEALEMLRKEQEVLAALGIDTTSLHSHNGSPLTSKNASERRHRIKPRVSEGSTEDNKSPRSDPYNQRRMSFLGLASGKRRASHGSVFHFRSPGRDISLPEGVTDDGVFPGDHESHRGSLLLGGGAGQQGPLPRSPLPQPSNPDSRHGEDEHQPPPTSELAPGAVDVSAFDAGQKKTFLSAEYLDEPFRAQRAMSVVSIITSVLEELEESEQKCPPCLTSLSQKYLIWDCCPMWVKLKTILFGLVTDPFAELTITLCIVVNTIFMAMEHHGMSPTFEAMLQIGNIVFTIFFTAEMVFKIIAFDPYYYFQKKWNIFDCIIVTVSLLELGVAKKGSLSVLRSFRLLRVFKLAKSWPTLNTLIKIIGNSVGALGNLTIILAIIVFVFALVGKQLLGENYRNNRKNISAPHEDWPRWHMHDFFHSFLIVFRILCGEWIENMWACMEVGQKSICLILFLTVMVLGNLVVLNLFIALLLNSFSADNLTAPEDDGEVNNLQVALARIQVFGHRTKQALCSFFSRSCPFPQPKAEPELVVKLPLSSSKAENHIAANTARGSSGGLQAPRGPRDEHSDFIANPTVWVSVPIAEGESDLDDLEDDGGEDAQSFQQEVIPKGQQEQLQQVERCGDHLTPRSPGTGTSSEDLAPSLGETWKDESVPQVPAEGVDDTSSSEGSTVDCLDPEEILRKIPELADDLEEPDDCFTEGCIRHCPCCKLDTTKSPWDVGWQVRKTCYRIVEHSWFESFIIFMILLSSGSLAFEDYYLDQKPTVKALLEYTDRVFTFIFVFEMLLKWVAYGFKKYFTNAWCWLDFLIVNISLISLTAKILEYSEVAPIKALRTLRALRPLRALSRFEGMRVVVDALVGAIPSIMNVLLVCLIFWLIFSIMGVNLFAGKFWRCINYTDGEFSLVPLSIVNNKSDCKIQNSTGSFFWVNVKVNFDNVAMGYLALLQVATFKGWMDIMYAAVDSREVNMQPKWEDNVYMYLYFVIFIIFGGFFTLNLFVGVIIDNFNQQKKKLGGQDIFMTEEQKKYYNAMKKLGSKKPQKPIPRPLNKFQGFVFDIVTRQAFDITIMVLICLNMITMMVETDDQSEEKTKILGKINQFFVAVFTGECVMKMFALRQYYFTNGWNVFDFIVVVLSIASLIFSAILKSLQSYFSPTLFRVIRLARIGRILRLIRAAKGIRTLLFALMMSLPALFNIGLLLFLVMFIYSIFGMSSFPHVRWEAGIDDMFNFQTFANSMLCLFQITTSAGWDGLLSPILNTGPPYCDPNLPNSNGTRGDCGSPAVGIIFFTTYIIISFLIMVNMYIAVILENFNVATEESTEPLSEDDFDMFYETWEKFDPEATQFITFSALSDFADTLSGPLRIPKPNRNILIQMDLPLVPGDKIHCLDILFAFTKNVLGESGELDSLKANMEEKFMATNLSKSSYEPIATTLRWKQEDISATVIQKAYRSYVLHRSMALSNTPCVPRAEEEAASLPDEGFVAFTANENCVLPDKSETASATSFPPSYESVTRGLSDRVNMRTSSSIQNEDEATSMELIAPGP
T1 sequence (Q07699 19-218 partner): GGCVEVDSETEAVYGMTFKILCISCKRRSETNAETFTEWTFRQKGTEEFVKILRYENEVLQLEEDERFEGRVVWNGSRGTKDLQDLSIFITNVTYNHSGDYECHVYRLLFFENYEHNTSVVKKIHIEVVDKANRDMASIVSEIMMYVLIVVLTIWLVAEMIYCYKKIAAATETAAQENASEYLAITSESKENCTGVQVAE

Row | SMILES | IC50 [1] [µM] | IC50 [2] [µM]
1 | Cc1cc(C#N)ccc1N1CN(c2ccc(=O)[nH]c2C)C(=O)c2cc(Cl)ccc21 [Example 117, 4-(6-chloro-3-(2-methyl-6-oxo-1,6-dihydropyridin-3-yl)-4-oxo-3,4-dihydroquinazolin-1(2H)-yl)-3-methylbenzonitrile] | ≤ 0.1 | 
2 | Cc1cc(F)ccc1N1CN(c2ccc(=O)[nH]c2C)C(=O)c2ccc(OC(F)F)cc21 [Example 185, 7-(difluoromethoxy)-1-(4-fluoro-2-methylphenyl)-3-(2-methyl-6-oxo-1,6-dihydropyridin-3-yl)-2,3-dihydroquinazolin-4(1H)-one] | ≤ 0.1 | 
3 | COc1ccc(N2CN(c3ccc(F)cc3C)c3cc(C(F)(F)F)ccc3C2=O)cn1 [Example 10, 1-(4-fluoro-2-methylphenyl)-3-(6-methoxypyridin-3-yl)-7-(trifluoromethyl)-2,3-dihydroquinazolin-4(1H)-one] | 0.794 to 7.94 | 
4 | O=C1c2ccc(C(F)(F)F)cc2N(c2ccc(F)cc2Cl)CN1c1ccc(=O)[nH]c1 [Example 40, 1-(2-chloro-4-fluorophenyl)-3-(6-oxo-1,6-dihydropyridin-3-yl)-7-(trifluoromethyl)-2,3-dihydroquinazolin-4(1H)-one] | 0.126 to 0.631 | 
5 | Cc1cc(F)ccc1N1CN(c2ccc(=O)[nH]c2C)C(=O)c2ccc(C(F)(F)F)nc21 [Example 149, 1-(4-fluoro-2-methylphenyl)-3-(2-methyl-6-oxo-1,6-dihydropyridin-3-yl)-7-(trifluoromethyl)-2,3-dihydropyrido[2,3-d]pyrimidin-4(1H)-one] | 0.126 to 0.631 | 
6 | Cc1[nH]c(=O)ccc1N1CN(c2ccc(F)cc2C(C)C)c2ncc(C(F)(F)F)cc2C1=O [Example 63] | ≤ 0.1 | 
7 | Cc1[nH]c(=O)ccc1N1CN([C@H]2CCCC[C@H]2C)c2cc(C(F)(F)F)ccc2C1=O [Example 160, 3-(2-methyl-6-oxo-1,6-dihydropyridin-3-yl)-1-((1S,2R)-2-methylcyclohexyl)-7-(trifluoromethyl)-2,3-dihydroquinazolin-4(1H)-one] | ≤ 0.1 | 
8 | Cc1cc(F)ccc1N1CN(c2cccc(S(C)(=O)=O)c2)C(=O)c2ccc(C(F)(F)F)cc21 [Example 14, 1-(4-fluoro-2-methylphenyl)-3-(3-(methylsulfonyl)phen-yl)-7-(trifluoromethyl)-2,3-dihydroquinazolin-4(1H)-one] | 0.794 to 7.94 | 
9 | Cc1[nH]c(=O)ccc1N1CN(c2ccc(F)cc2C(C)C)c2cc(F)c(F)cc2C1=O [Example 159, 6,7-difluoro-1-(4-fluoro-2-isopropylphenyl)-3-(2-methyl-6-oxo-1,6-dihydropyridin-3-yl)-2,3-dihydroquinazolin-4(1H)-one] | ≤ 0.1 | 
10 | O=C1c2ccc(C(F)(F)F)cc2N(c2ccc(F)cc2F)CN1c1ccc(=O)[nH]c1 [Example 42, 1-(2,4-difluorophenyl)-3-(6-oxo-1,6-dihydropyridin-3-yl)-7-(trifluoromethyl)-2,3-dihydroquinazolin-4(1H)-one] | 0.794 to 7.94 | 
11 | Cc1cc(F)ccc1N1CN(c2ccc(=O)[nH]c2C)C(=O)c2cc(Cl)c(OC(F)F)cc21 [Example 167, 6-chloro-7-(difluoromethoxy)-1-(4-fluoro-2-methylphenyl)-3-(2-methyl-6-oxo-1,6-dihydropyridin-3-yl)-2,3-dihydroquinazolin-4(1H)-one] | ≤ 0.1 | 
12 | Cc1cc(F)ccc1N1CN(c2ccc(=O)[nH]c2C)C(=O)c2cc(Cl)c(C#N)cc21 [Example 105, 6-chloro-1-(4-fluoro-2-methylphenyl)-3-(2-methyl-6-oxo-1,6-dihydropyridin-3-yl)-4-oxo-1,2,3,4-tetrahydroquinazoline-7-carbonitrile] | ≤ 0.1 | 
13 | Cc1cc(F)ccc1-n1c(=O)n(-c2ccc(=O)[nH]c2)c(=O)c2ccc(C(F)(F)F)cc21 [Example 186, 1-(4-fluoro-2-methylphenyl)-3-(6-oxo-1,6-dihydropyridin-3-yl)-7-(trifluoromethyl) quinazoline-2,4(1H,3H)-dione] | 0.794 to 7.94 | 
14 | Cc1ccc(N2CN(c3ccc(=O)[nH]c3C)C(=O)c3cc(Cl)ccc32)c(O)c1 [Example 133, 6-chloro-1-(2-hydroxy-4-methylphenyl)-3-(2-methyl-6-oxo-1,6-dihydropyridin-3-yl)-2,3-dihydroquinazolin-4(1H)-one] | 0.794 to 7.94 | 
15 | Cc1cc(F)ccc1N1CN(c2cc[nH]c(=O)c2C)C(=O)c2ccc(C(F)(F)F)cc21 [Example 55, 1-(4-fluoro-2-methylphenyl)-3-(3-methyl-2-oxo-1,2-dihydropyridin-4-yl)-7-(trifluoromethyl)-2,3-dihydroquinazolin-4(1H)-one] | 0.794 to 7.94 | 
16 | Cc1[nH]c(=O)ccc1N1CN(c2ccccc2)c2cc(C(F)(F)F)ccc2C1=O [Example 86, 3-(2-methyl-6-oxo-1,6-dihydropyridin-3-yl)-1-phenyl-7-(trifluoromethyl)-2,3-dihydroquinazolin-4(1H)-one] | 0.794 to 7.94 | 
17 | Cc1cc(F)ccc1N1CN(c2ccc(=O)[nH]c2C2CC2)C(=O)c2ccc(C(F)(F)F)cc21 [Example 90, 3-(2-cyclopropyl-6-oxo-1,6-dihydropyridin-3-yl)-1-(4-fluoro-2-methylphenyl)-7-(trifluoromethyl)-2,3-dihydroquinazolin-4(1H)-one] | ≤ 0.1 | 
18 | Cc1ccc2c(c1)N(c1ccc(F)cc1C)CN(c1ccc(=O)[nH]c1C)C2=O [Example 57, 1-(4-fluoro-2-methylphenyl)-7-methyl-3-(2-methyl-6-oxo-1,6-dihydropyridin-3-yl)-2,3-dihydroquinazolin-4(1H)-one] | ≤ 0.1 | 

More lines, now with the values ahead:

Row | IC50 [1] [µM] | IC50 [2] [µM] | SMILES
19 | ≤ 0.1 |  | Cc1cc(F)ccc1N1CN(c2cnc(=O)[nH]c2C)C(=O)c2ccc(OC(F)(F)F)cc21 [Example 205, 1-(4-fluoro-2-methylphenyl)-3-(6-methyl-2-oxo-1,2-dihydropyrimidin-5-yl)-7-(trifluoromethoxy)-2,3-dihydroquinazolin-4(1H)-one]
20 | 0.794 to 7.94 |  | Cc1cc(F)ccc1N1CN(c2ccc[n+]([O-])c2)C(=O)c2cc(C(F)(F)F)ccc21 [Example 249, 3-(1-(4-fluoro-2-methylphenyl)-4-oxo-6-(trifluoromethyl)-1,4-dihydroquinazolin-3(2H)-yl)pyridine 1-oxide]
21 | ≤ 0.1 |  | CC1=C(N2CN(c3ccc(F)cc3C)c3cc(C(F)(F)F)ccc3C2=O)CNC(=O)N1 [Example 271, 1-(4-fluoro-2-methylphenyl)-3-(6-methyl-2-oxo-1,2,3,4-tetrahydro-pyrimidin-5-yl)-7-(trifluoromethyl)-2,3-dihydroquinazolin-4(1H)-one]
22 |  | 0.251 | CCc1cc(F)ccc1N1CN(c2ccc(=O)[nH]c2)C(=O)c2ccc(C(F)(F)F)cc21 [drawing 280, 1-(2-ethyl-4-fluorophenyl)-3-(6-oxo-1,6-dihydropyridin-3-yl)-7-(trifluoromethyl)-2,3-dihydroquinazolin-4(1H)-one]
23 | ≤ 0.1 |  | Cc1[nH]c(=O)ccc1N1CN(c2ccccc2CC(F)(F)F)c2ccc(C(F)(F)F)cc2C1=O [Example 240, 3-(2-Methyl-6-oxo-1,6-dihydropyridin-3-yl)-1-(2-(2,2,2-trifluoroethyl)phenyl)-6-(trifluoromethyl)-2,3-dihydroquinazolin-4(1H)-one]
24 |  | 7.94 | O=C1c2ccc(C(F)(F)F)cc2N(Cc2ccc(F)cc2)CN1c1ccc(=O)[nH]c1 [drawing 272, 1-(4-fluorobenzyl)-3-(6-oxo-1,6-dihydropyridin-3-yl)-7-(trifluoromethyl)-2,3-dihydroquinazolin-4(1H)-one]
25 | 0.794 to 7.94 |  | Cc1cc(=O)[nH]c(C)c1N1CN(c2ccc(F)cc2C(C)C)c2ccc(Cl)cc2C1=O (single isomer, unassigned) [Example 291, 6-Chloro-3-(2,4-dimethyl-6-oxo-1,6-dihydropyridin-3-yl)-1-(4-fluoro-2-isopropylphenyl)-2,3-dihydroquinazolin-4(1H)-one]
26 | ≤ 0.1 |  | CCc1cc(F)ccc1N1CN(c2ccc(=O)[nH]c2C)C(=O)c2cc(Cl)c(C#N)cc21 [Example 192, 6-chloro-1-(2-ethyl-4-fluorophenyl)-3-(2-methyl-6-oxo-1,6-dihydropyridin-3-yl)-4-oxo-1,2,3,4-tetra-hydroquinazoline-7-carbonitrile]
27 | 0.126 to 0.631 |  | Cc1ccc2c(n1)N(c1ccc(F)cc1C)CN(c1ccc(=O)[nH]c1C)C2=O [Example 206, 1-(4-fluoro-2-methylphenyl)-7-methyl-3-(2-methyl-6-oxo-1,6-dihydropyridin-3-yl)-2,3-dihydropyrido[2,3-d]pyrimidin-4(1H)-one]
28 | 0.794 to 7.94 |  | COc1cccc2c1C(=O)N(c1ccc(=O)[nH]c1C)CN2c1ccc(F)cc1C(C)C [Example 236, 1-(4-fluoro-2-isopropylphenyl)-5-methoxy-3-(2-methyl-6-oxo-1,6-dihydropyridin-3-yl)-2,3-dihydroquinazolin-4(1H)-one]
29 | ≤ 0.1 |  | Cc1cc(F)ccc1N1CN(c2ccc(=O)[nH]c2C)C(=O)c2c1ccc(Cl)c2C [Example 234, 6-chloro-1-(4-fluoro-2-methylphenyl)-5-methyl-3-(2-methyl-6-oxo-1,6-dihydropyridin-3-yl)-2,3-dihydroquinazolin-4(1H)-one]
30 | 0.794 to 7.94 |  | Cc1cc(F)ccc1N1c2cc(C(F)(F)F)ccc2C(=O)N(c2ccc(=O)[nH]c2)C1C (single isomer, unassigned) [Example 285]
31 | 0.794 to 7.94 |  | Cc1cc(F)ccc1N1CN(c2ccc(=O)[nH]c2C)C(=O)c2ccc(C(F)(F)CO)cc21 [Example 197, 7-(1,1-difluoro-2-hydroxyethyl)-1-(4-fluoro-2-methylphenyl)-3-(2-methyl-6-oxo-1,6-dihydropyridin-3-yl)-2,3-dihydroquinazolin-4(1H)-one]
32 | 0.126 to 0.631 |  | Cc1c[n+]([O-])ccc1N1CN(c2ccc(F)cc2C)c2ccc(C(F)(F)F)cc2C1=O [Example 254, 4-(1-(4-fluoro-2-methylphenyl)-4-oxo-6-(trifluoromethyl)-1,4-dihydroquinazolin-3(2H)-yl)-3-methylpyridine 1-oxide]

Reference: patent US20230103791A1 (GLAXOSMITHKLINE INTELLECTUAL PROPERTY DEVELOPMENT LIMITED, priority 2019, published 2023)
